From paper PMC2901826, “Intramolecular Modulation of Serine Protease Inhibitor Activity in a Marine Cyanobacterium with Antifeedant Properties” (Marine Drugs, 2010)

What was measured:
[1] = target: T1, α-chymotrypsin from bovine pancreas (Bos taurus, UniProt P00766); assay: Chymotrypsin inhibition assay; assay type: biochemical; conditions: for IC50: α-chymotrypsin from bovine pancreas, substrate N-succinyl-Gly-Gly-Phe-p-nitroanilide, 30 min pre-incubation, triplicate, read-out: Serine protease inhibitory activity (IC50), Chymotrypsin
T1 construct: purchased Sigma C4129; host or cells: bovine pancreas
Description: (§1) Elastase assay was assessed using high-purity porcine pancreatic elastase (Elastin Products Company, EC134, 135 units/mg). The assay buffer used was 1M Tris-HCl (pH 8.0). Assay buffer (79 μL), elastase solution (75 μg/mL in assay buffer, 5 μL) and various concentrations of 1 and 2 (1 μL, dissolved in DMSO) were pre-incubated for 15 min at room temperature in a microtiter plate. After this time, 15 μL of substrate solution (2 mM N-succinyl-Ala-Ala-Ala-p-nitroanilide in assay buffer) was added to each well and the reaction was followed by measuring the absorbance at 405 nm every 30 s. Inhibition of chymotrypsin was determined using the α-chymotrypsin from bovine pancreas (Sigma, C4129, 55 units/mg). The assay buffer was 50 mM Tris-HCl, 100 mM NaCl and 1 mM CaCl2 (pH 7.8). Assay buffer (39 μL), enzyme solution (100 μg/mL in assay buffer, 10 μL), and various concentrations of 1 and 2 (1 μL, dissolved in DMSO) were pre incubated for 30 min at room temperature before substrate solution (1.5 mM N-succinyl-Gly-Gly-Phe-p-nitroanilide in assay buffer) was added. The reaction was followed by measuring the absorbance at 405 nm every 30 s for 30 min. For each assay, enzyme activity of each well was calculated using the initial slope of each progress curve, expressed as a percentage of the slope of uninhibited reaction. All assays were carried out in triplicate at ambient temperature (T = 29 °C). […] Dose–response curve fitting was done using Xlfit Excel, MathlQ Version 2.2.2 (IDBS Ltd.).

[2] = target: T2, porcine pancreatic elastase (Sus scrofa, UniProt P00772); assay: Elastase inhibition assay; assay type: biochemical; conditions: for IC50: porcine pancreatic elastase, substrate N-succinyl-Ala-Ala-Ala-p-nitroanilide, 15 min pre-incubation, triplicate, read-out: Serine protease inhibitory activity (IC50), Elastase
T2 construct: purchased Elastin Products Company EC134; host or cells: porcine pancreas
T2 sequence (P00772 27-266): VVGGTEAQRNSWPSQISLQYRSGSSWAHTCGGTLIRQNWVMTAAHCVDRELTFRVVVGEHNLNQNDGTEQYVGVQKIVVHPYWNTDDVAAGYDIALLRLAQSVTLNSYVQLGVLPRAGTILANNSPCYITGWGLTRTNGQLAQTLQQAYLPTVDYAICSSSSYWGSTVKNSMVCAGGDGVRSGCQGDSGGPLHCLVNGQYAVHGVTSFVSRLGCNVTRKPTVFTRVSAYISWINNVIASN
Description: as §1

[3] = target: T1, α-chymotrypsin from bovine pancreas; conditions: cited from earlier work

Structure (SMILES)	IC50 [1] [nM]	IC50 [2] [nM]	chymotrypsin inhibition, previously reported [3]	fold reduced activity against chymotrypsin ([1]; relative to largamide D (2)) [fold]	fold reduced activity against elastase ([2]; relative to largamide D (2)) [fold]
CC(C)C[C@@H]1NC(=O)[C@@H](NC(=O)[C@@H](NC(=O)[C@H](C)NC(=O)[C@H](CCCc2ccc(O)cc2)NC(=O)[C@H](O)CO)C(C)C)[C@@H](C)OC(=O)[C@H](C(C)C)NC(=O)[C@H](Cc2ccc(O)c(Br)c2)N(C)C(=O)[C@H]([C@@H](C)O)N2C(=O)[C@H](CC[C@H]2O)NC1=O [Largamide D (2), largamide D]	83 ± 8	45 ± 3	moderate chymotrypsin inhibitor	–	–
CC(C)CC1NC(=O)C(NC(=O)C(NC(=O)C(C)NC(=O)C(CCCc2ccc(O)cc2)NC(=O)C(O)CO)C(C)C)C(C)OC(=O)C(C(C)C)NC(=O)C(Cc2ccc(O)c(Br)c2)N(C)C(=O)C2C(C)OC3CCC(NC1=O)C(=O)N32 (stereo not shown) [Largamide D oxazolidine (1), largamide D oxazolidine]	928 ± 93	1520 ± 80	–	11	33
